Experimental data from patent US20100184699A1, “Peptide Derived From Prostate-Related Protein As Cancer Vaccine Candidate For Prostate Cancer Patient Who Is Positive For Hla-A3 Super-Type Allele Molecule” (priority 2005, published 2010).
“And” between values parts separate entries of the source, which are not always exact repeats. Equal values may be shown once.

Tests used:
[1] = system: peptide-specific IgG in plasma of prostate cancer patients and healthy donors; experiment: Detection of peptide-specific IgG in plasma by ELISA; assay type: binding, human; conditions: for IgG reactive to peptide in plasma: 1:100-diluted plasma; for frequency of detection of peptide-reactive IgG: plasma of prostate cancer patients, compared within PSA, PAP or PSMA peptides
[2] = system: C1R-A11, -A31 or -A33 cells pulsed with corresponding peptide; experiment: Induction of peptide-specific CTLs from PBMCs (IFN-γ ELISA); assay type: cell-based, human
[3] = Prostate cancer patient 10, A11
[4] = Prostate cancer patient 20, A33
[5] = Prostate cancer patient 14, A33

Row | Sequence | IgG reactive to peptide in plasma ([1]; Healthy donor 4, A31) | IgG reactive to peptide in plasma, Total (positive/tested) ([1]; Healthy donors) | IgG reactive to peptide in plasma ([1]; Prostate cancer patient 4, A31) | IgG reactive to peptide in plasma [1, 3] | IgG reactive to peptide in plasma ([1]; Prostate cancer patient 16, A33) | IgG reactive to peptide in plasma, Total (positive/tested) ([1]; Prostate cancer patients) | frequency of detection of peptide-reactive IgG [1] | Total (positive / tested) [2] | IgG reactive to peptide in plasma ([1]; Healthy donor 12, A31) | IgG reactive to peptide in plasma [1, 4] | IgG reactive to peptide in plasma ([1]; Healthy donor 3, A31) | IgG reactive to peptide in plasma ([1]; Healthy donor 9, A11) | IgG reactive to peptide in plasma ([1]; Prostate cancer patient 9, A11) | IgG reactive to peptide in plasma [1, 5] | IgG reactive to peptide in plasma ([1]; Healthy donor 2, A3) | IgG reactive to peptide in plasma ([1]; Prostate cancer patient 7, A11) | IgG reactive to peptide in plasma ([1]; Prostate cancer patient 13, A11) | IgG reactive to peptide in plasma ([1]; Prostate cancer patient 19, A33)
1 | VLTAAHCIR [PSA 60-68] | + (IgG reactive to a corresponding peptide was judged to be positive when a difference of the optical density (OD) in a 1:100-diluted plasma was more than 100) | 1/9 | + (IgG reactive to a corresponding peptide was judged to be positive when a difference of the optical density (OD) in a 1:100-diluted plasma was more than 100) | + (IgG reactive to a corresponding peptide was judged to be positive when a difference of the optical density (OD) in a 1:100-diluted plasma was more than 100) | + (IgG reactive to a corresponding peptide was judged to be positive when a difference of the optical density (OD) in a 1:100-diluted plasma was more than 100) | 3/20 | more frequently | 1/13 and 3/9 | – | – | – | – | – | – | – | – | – | –
2 | QPWQVLVASR (PSA 36-45) [PSA-derived peptide] | + (IgG reactive to a corresponding peptide was judged to be positive when a difference of the optical density (OD) in a 1:100-diluted plasma was more than 100) | 2/8 | – | – | – | 0/20 | less frequently | 1/13 and 1/9 | + (IgG reactive to a corresponding peptide was judged to be positive when a difference of the optical density (OD) in a 1:100-diluted plasma was more than 100) | – | – | – | – | – | – | – | – | –
3 | KIVIARYGK (PSMA 199-207) [PSMA-derived peptide] | – | 0/9 | – | – | – | 1/20 | less frequently | 0/13 and 4/9 | – | + (IgG reactive to a corresponding peptide was judged to be positive when a difference of the optical density (OD) in a 1:100-diluted plasma was more than 100) | – | – | – | – | – | – | – | –
4 | TLVFRHGDR [PAP 39-47] | – | 2/9 | + (IgG reactive to a corresponding peptide was judged to be positive when a difference of the optical density (OD) in a 1:100-diluted plasma was more than 100) | + (IgG reactive to a corresponding peptide was judged to be positive when a difference of the optical density (OD) in a 1:100-diluted plasma was more than 100) | – | 5/20 | more frequently | 3/13 and 7/9 | – | + (IgG reactive to a corresponding peptide was judged to be positive when a difference of the optical density (OD) in a 1:100-diluted plasma was more than 100) | + (IgG reactive to a corresponding peptide was judged to be positive when a difference of the optical density (OD) in a 1:100-diluted plasma was more than 100) | + (IgG reactive to a corresponding peptide was judged to be positive when a difference of the optical density (OD) in a 1:100-diluted plasma was more than 100) | + (IgG reactive to a corresponding peptide was judged to be positive when a difference of the optical density (OD) in a 1:100-diluted plasma was more than 100) | + (IgG reactive to a corresponding peptide was judged to be positive when a difference of the optical density (OD) in a 1:100-diluted plasma was more than 100) | – | – | – | –
5 | LYDMSLLKNR (PSA 100-109) [PSA-derived peptide] | + (IgG reactive to a corresponding peptide was judged to be positive when a difference of the optical density (OD) in a 1:100-diluted plasma was more than 100) | 4/9 | + (IgG reactive to a corresponding peptide was judged to be positive when a difference of the optical density (OD) in a 1:100-diluted plasma was more than 100) | + (IgG reactive to a corresponding peptide was judged to be positive when a difference of the optical density (OD) in a 1:100-diluted plasma was more than 100) | – | 7/20 | more frequently | 1/13 and 3/9 | – | – | + (IgG reactive to a corresponding peptide was judged to be positive when a difference of the optical density (OD) in a 1:100-diluted plasma was more than 100) | + (IgG reactive to a corresponding peptide was judged to be positive when a difference of the optical density (OD) in a 1:100-diluted plasma was more than 100) | + (IgG reactive to a corresponding peptide was judged to be positive when a difference of the optical density (OD) in a 1:100-diluted plasma was more than 100) | + (IgG reactive to a corresponding peptide was judged to be positive when a difference of the optical density (OD) in a 1:100-diluted plasma was more than 100) | + (IgG reactive to a corresponding peptide was judged to be positive when a difference of the optical density (OD) in a 1:100-diluted plasma was more than 100) | + (IgG reactive to a corresponding peptide was judged to be positive when a difference of the optical density (OD) in a 1:100-diluted plasma was more than 100) | + (IgG reactive to a corresponding peptide was judged to be positive when a difference of the optical density (OD) in a 1:100-diluted plasma was more than 100) | + (IgG reactive to a corresponding peptide was judged to be positive when a difference of the optical density (OD) in a 1:100-diluted plasma was more than 100)
6 | LFLLFFWLDR (PAP 19-28) [PAP-derived peptide] | – | – | – | – | – | – | less frequently | 1/13 and 2/9 | – | – | – | – | – | – | – | – | – | –
